Our source for the EC50 values is patent US9655904B2, “Substituted benzoazepines as toll-like receptor modulators” (VentiRx Pharmaceuticals, Inc., priority 2009, dated 2017).

One experiment concerns the target T1, TLR8 (Homo sapiens, UniProt Q9NR97).
T1 sequence (Q9NR97 27-1041): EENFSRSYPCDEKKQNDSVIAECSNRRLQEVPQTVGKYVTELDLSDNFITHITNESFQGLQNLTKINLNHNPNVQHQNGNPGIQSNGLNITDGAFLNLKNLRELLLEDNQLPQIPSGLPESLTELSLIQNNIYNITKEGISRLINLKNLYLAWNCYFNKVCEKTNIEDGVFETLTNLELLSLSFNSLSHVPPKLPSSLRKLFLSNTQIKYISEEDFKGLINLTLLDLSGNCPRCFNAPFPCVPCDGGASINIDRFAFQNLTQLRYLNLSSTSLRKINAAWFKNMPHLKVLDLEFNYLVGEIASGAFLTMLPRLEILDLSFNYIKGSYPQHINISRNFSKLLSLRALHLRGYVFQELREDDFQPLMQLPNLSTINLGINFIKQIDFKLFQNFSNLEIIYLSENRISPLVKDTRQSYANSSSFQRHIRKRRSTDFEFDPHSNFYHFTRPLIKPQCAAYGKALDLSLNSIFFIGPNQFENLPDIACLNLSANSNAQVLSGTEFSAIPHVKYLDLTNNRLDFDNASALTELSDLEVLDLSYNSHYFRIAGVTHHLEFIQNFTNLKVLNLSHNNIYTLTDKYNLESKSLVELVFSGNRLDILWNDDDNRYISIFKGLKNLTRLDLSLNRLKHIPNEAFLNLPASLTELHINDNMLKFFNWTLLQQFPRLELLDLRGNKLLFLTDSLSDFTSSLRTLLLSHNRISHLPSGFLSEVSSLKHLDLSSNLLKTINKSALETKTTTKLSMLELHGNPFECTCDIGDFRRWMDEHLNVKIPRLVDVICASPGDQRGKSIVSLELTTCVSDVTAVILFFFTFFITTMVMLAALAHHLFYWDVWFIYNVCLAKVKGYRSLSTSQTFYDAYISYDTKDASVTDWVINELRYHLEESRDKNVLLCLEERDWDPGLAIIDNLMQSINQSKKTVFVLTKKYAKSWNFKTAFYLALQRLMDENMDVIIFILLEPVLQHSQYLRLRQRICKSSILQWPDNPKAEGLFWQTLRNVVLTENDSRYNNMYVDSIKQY
In words: PBMC assay for TLR8 (TNFα in supernatants by ELISA). It counts as cell-based. Also noted: Peripheral blood mononuclear cells (PBMCs) from human blood were isolated; endogenous in cells; host or cells: human PBMCs. The following applies: human PBMCs incubated with compound overnight, MC50 = concentration at which 50% of maximum induction is seen. The protocol:
(§1) Peripheral blood mononuclear cells (PBMCs) from human blood were isolated using BD Vacutainer Cell Preparation Tubes with sodium citrate. Cells were incubated with compound overnight. TLR8 activity was assayed by measuring the amount of TNFα in supernatants by ELISA. TLR7 activity was assayed by measuring the amount of IFNα in supernatants by ELISA (R&D Systems). […] The results of this assay are shown below in Tables 2 and 3.
(§2) MC50 numbers are represented as factors of ten, for example, + indicates an MC50 value of X 10^4, or a value in the tens of thousands of nanomolar (nM range); ++ indicates an MC50 value of X 10^3, or a value in the thousands; +++ indicates an MC50 value of X 10^2, or a value in the hundreds; and ++++ indicates an MC50 value of X 10^1 or 10^0, or a value in the tens or ones.
Background: ELISA stands for enzyme-linked immunosorbent assay.

The next experiment concerns the target T2, TLR7 (Homo sapiens, UniProt Q9NYK1).
T2 sequence (Q9NYK1 27-1049): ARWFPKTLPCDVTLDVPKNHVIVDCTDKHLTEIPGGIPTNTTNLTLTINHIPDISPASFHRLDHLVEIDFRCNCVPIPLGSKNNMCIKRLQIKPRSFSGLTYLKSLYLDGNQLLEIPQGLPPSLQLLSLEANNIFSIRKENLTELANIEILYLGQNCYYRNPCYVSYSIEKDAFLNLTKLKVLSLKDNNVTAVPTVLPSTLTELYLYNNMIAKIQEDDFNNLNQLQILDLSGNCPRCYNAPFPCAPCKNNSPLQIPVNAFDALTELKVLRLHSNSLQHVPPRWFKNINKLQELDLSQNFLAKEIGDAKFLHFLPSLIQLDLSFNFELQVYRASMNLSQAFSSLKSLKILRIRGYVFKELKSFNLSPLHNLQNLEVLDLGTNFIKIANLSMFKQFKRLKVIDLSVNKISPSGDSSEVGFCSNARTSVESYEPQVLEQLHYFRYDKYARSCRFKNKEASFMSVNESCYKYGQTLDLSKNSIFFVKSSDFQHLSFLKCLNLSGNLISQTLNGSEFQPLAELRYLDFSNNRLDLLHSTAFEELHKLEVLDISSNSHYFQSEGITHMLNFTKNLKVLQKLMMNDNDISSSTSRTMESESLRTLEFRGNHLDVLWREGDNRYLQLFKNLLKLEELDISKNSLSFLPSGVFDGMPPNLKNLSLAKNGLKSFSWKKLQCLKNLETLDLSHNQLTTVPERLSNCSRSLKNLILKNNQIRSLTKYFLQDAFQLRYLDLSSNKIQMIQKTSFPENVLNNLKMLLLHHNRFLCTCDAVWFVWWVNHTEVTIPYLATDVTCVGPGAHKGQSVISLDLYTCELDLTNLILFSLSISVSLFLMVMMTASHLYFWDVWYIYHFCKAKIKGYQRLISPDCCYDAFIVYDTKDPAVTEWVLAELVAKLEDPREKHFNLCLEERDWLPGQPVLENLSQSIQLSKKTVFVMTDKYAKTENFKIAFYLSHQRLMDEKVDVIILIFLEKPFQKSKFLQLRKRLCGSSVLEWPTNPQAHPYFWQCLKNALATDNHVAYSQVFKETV
The experiment in a line: PBMC assay for TLR7 (IFNα in supernatants by ELISA). It counts as cell-based. Also noted: Peripheral blood mononuclear cells (PBMCs) from human blood were isolated; endogenous in cells; host or cells: human PBMCs. The conditions noted are these: human PBMCs incubated with compound overnight, MC50 = concentration at which 50% of maximum induction is seen. The method, then: as §1, §2

Broadly, the EC50 is the concentration giving half of the maximal effect. Take `CCCN(CC1CCNCC1)C(=O)C1=Cc2ccc(-c3ccc(C(=O)N4CCCC4)cc3)cc2N=C(N)C1` [Compound 113, (1E,4E)-2-amino-N-(piperidin-4-ylmethyl)-N-propyl-8-(4-(pyrrolidine-1-carbonyl)phenyl)-3H-benzo[b]azepine-4-carboxamide]: the EC50 on TLR8 was in the range of 100 to 1000 nM.

Take `NC1=Nc2cc(-c3ccc(C(=O)N4CCCC4)cc3)ccc2C=C(C(=O)NOCc2ccccc2)C1` [Compound 116, (1E,4E)-2-amino-N-(benzyloxy)-8-(4-(pyrrolidine-1-carbonyl)phenyl)-3H-benzo[b]azepine-4-carboxamide]: the EC50 on TLR7 fell in the range of 10000 to 100000 nM; at TLR8, 1000 to 10000 nM.

Consider `CCCN(OCc1ccccc1)C(=O)C1=Cc2ccc(-c3ccc(C(=O)N4CCCC4)cc3)cc2N=C(N)C1` [Compound 118, (1E,4E)-2-amino-N-(benzyloxy)-N-propyl-8-(4-(pyrrolidine-1-carbonyl)phenyl)-3H-benzo[b]azepine-4-carboxamide], for which the 50% effective concentration (EC50) on TLR8 is 1 to 100 nM.

For `CCOC(=O)C1=Cc2ccc(OCc3ccccc3)cc2N=C(N)C1` [Compound 148, (1E,4E)-ethyl 2-amino-8-(benzyloxy)-3H-benzo[b]azepine-4-carboxylate], the 50% effective concentration (EC50) on TLR8 lay in the range of 100 to 1000 nM.

`CCCN(CC1CCCN1)C(=O)C1=Cc2ccc(-c3ccc(C(=O)N4CCCC4)cc3)cc2N=C(N)C1` (stereo not shown) [Compound 175, (1E,4E)-2-amino-N-propyl-N-(pyrrolidin-2-ylmethyl)-8-(4-(pyrrolidine-1-carbonyl)phenyl)-3H-benzo[b]azepine-4-carboxamide]: on TLR8, the EC50 fell in the range of 1000 to 10000 nM.

`CCCN(CCCS(N)(=O)=O)C(=O)C1=Cc2ccc(-c3ccc(C(=O)N4CCCC4)cc3)cc2N=C(N)C1` [Compound 177, (1E,4E)-2-amino-N-propyl-8-(4-(pyrrolidine-1-carbonyl)phenyl)-N-(3-sulfamoylpropyl)-3H-benzo[b]azepine-4-carboxamide]: the half-maximal effective concentration (EC50) at TLR8 lay in the range of 100 to 1000 nM.

As to `CCCN(CCC)C(=O)C1=Cc2ccc(CCCN3CCOCC3)cc2N=C(N)C1` [Compound 184, (1E,4E)-2-amino-8-(3-morpholinopropyl)-N,N-dipropyl-3H-benzo[b]azepine-4-carboxamide], the half-maximal effective concentration (EC50) on TLR7 lay within 1000 to 10000 nM; on TLR8, 1 to 100 nM.

`CCCN(CCC)C(=O)C1=Cc2ccc(OCc3ccccc3)cc2N=C(N)C1` [Compound 185, (1E,4E)-2-amino-8-(benzyloxy)-N,N-dipropyl-3H-benzo[b]azepine-4-carboxamide]: at TLR8, the concentration for a half-maximal effect (EC50) was 100 to 1000 nM.

As for `CCCN(CCC)C(=O)C1=Cc2ccc(-c3ccc(CC(=O)O)cc3)cc2N=C(N)C1` [Compound 191, 2-(4-((1E,4E)-2-Amino-4-(dipropylcarbamoyl)-3H-benzo[b]azepin-8-yl)phenyl)acetic acid], the values for the EC50 on TLR7 and at TLR8 were 10000 to 100000 nM and 1000 to 10000 nM, respectively.

Take `CCCN(CCC)C(=O)C1=Cc2ccc(-c3ccc(CC(=O)OCC)cc3)cc2N=C(N)C1` [Compound 192, Ethyl 2-(4-((1E,4E)-2-amino-4-(dipropylcarbamoyl)-3H-benzo[b]azepin-8-yl)phenyl)acetate]: the concentration giving a half-maximal response (EC50) was in the range of 10000 to 100000 nM at TLR7 and 100 to 1000 nM at TLR8.

On to `CCCN(CCC)C(=O)C1=Cc2ccc(-c3ccc(CCC(=O)OCC)cc3)cc2N=C(N)C1` [Compound 193, Ethyl 3-(4-((1E,4E)-2-amino-4-(dipropylcarbamoyl)-3H-benzo[b]azepin-8-yl)phenyl)propanoate], for which the EC50 at TLR7 and at TLR8 was 1000 to 10000 nM in each case.

Turning to `CCCN(CCC)C(=O)C1=Cc2ccc(-c3ccc(OCC(=O)O)cc3)cc2N=C(N)C1` [Compound 196, 2-(4-((1E,4E)-2-Amino-4-(dipropylcarbamoyl)-3H-benzo[b]azepin-8-yl)phenoxy)acetic acid], the concentration for a half-maximal effect (EC50) at TLR8 fell in the range of 10000 to 100000 nM.

Take `CCCN(CCC)C(=O)C1=Cc2ccc(-c3ccc4c(c3)COC4=O)cc2N=C(N)C1` [Compound 198, (1E,4E)-2-Amino-8-(1-oxo-1,3-dihydroisobenzofuran-5-yl)-N,N-dipropyl-3H-benzo[b]azepine-4-carboxamide]: the half-maximal effective concentration (EC50) at TLR8 was 100 to 1000 nM.

As for `CCOC(=O)C1=Cc2ccc(CCCN3CCOCC3)cc2N=C(N)C1` [Compound 200, (1E,4E)-ethyl 2-amino-8-(3-morpholinopropyl)-3H-benzo[b]azepine-4-carboxylate], the EC50 at TLR8 is 1 to 100 nM.

As to `CCCN(CCC)C(=O)C1=Cc2ccc(-c3ccc(C(=O)NCCCC(=O)OCc4ccccc4)cc3)cc2N=C(N)C1` [Compound 201, benzyl 4-(4-((1E,4E)-2-amino-4-(dipropylcarbamoyl)-3H-benzo[b]azepin-8-yl)benzamido)butanoate], at TLR8, the concentration for a half-maximal effect (EC50) was in the range of 100 to 1000 nM.

Regarding `CCCN(CCC)C(=O)C1=Cc2ccc(-c3cccc(CC(=O)OCC)c3)cc2N=C(N)C1` [Compound 205, Ethyl 2-(3-((1E,4E)-2-amino-4-(dipropylcarbamoyl)-3H-benzo[b]azepin-8-yl)phenyl)acetate], the half-maximal effective concentration (EC50) at TLR8 lay within 100 to 1000 nM.

Turning to `CCCN(CCCO)C(=O)C1=Cc2ccc(-c3ccc(CC(=O)OCC4CC4)cc3)cc2N=C(N)C1` [Compound 217, Cyclopropylmethyl 2-(4-((1E,4E)-2-amino-4-((3-hydroxypropyl)(propyl)carbamoyl)-3H-benzo[b]azepin-8-yl)phenyl)acetate], on TLR8, the EC50 was in the range of 1 to 100 nM.

In the case of `CCCN(CCCO)C(=O)C1=Cc2ccc(-c3ccc(CC(=O)OCc4ccccc4)cc3)cc2N=C(N)C1` [Compound 218, Benzyl 2-(4-((1E,4E)-2-amino-4-((3-hydroxypropyl)(propyl)carbamoyl)-3H-benzo[b]azepin-8-yl)phenyl)acetate], at TLR8, the 50% effective concentration (EC50) was 100 to 1000 nM.

In the case of `CCCN(CCCO)C(=O)C1=Cc2ccc(-c3ccc4c(c3)COC4=O)cc2N=C(N)C1` [Compound 221, (1E,4E)-2-Amino-N-(3-hydroxypropyl)-8-(1-oxo-1,3-dihydroisobenzofuran-5-yl)-N-propyl-3H-benzo[b]azepine-4-carboxamide], the EC50 on TLR8 was in the range of 100 to 1000 nM.

With `CCCN(CCC)C(=O)C1=Cc2ccc(-c3ccc(OS(=O)(=O)C(F)(F)F)cc3)cc2N=C(N)C1` [Compound 226, 4-((1E,4E)-2-amino-4-(dipropylcarbamoyl)-3H-benzo[b]azepin-8-yl)phenyl trifluoromethanesulfonate], on TLR8, the concentration giving a half-maximal response (EC50) lay in the range of 100 to 1000 nM.
